{"source": "paper PMC5218480", "about": "(PLoS ONE, 2017)", "test_system": "MV-4-11 cells", "test": "Gene expression microarray analysis (Affymetrix PrimeView) and GSEA", "format": "cell-based, human", "parameters": "RFU PODN (11730768_x_at) / Fold change /veh PODN (11730768_x_at) / RFU LINC00158 (11744669_a_at) / Fold change /veh LINC00158 (11744669_a_at) / RFU DUSP10 (11751237_a_at) / Fold change /veh DUSP10 (11751237_a_at) / RFU ID3 (11757404_x_at) / Fold change /veh ID3 (11757404_x_at) / RFU PLEKHG5 (11737974_s_at) / Fold change /veh PLEKHG5 (11737974_s_at) / RFU LRRC4B (11730491_at) / Fold change /veh LRRC4B (11730491_at) / RFU GIMAP4 (11747438_a_at) / Fold change /veh GIMAP4 (11747438_a_at) / RFU KRT8 (11758183_x_at) / Fold change /veh KRT8 (11758183_x_at) / RFU CNN1 (11734310_a_at) / Fold change /veh CNN1 (11734310_a_at) / RFU VPS37D (11726825_at) / Fold change /veh VPS37D (11726825_at) / RFU C10orf10 (11716522_x_at) / Fold change /veh C10orf10 (11716522_x_at) / RFU KIR2DL2 /// KIR2DL4 /// KIR2DL5A /// KIR2DL5B /// KIR2DS1 /// KIR2DS2 /// KIR2DS3 /// KIR2DS4 /// KIR3DL3 /// KIR3DL3 /// KIR3DS1 (11738374_at) / Fold change /veh KIR2DL2 /// KIR2DL4 /// KIR2DL5A /// KIR2DL5B /// KIR2DS1 /// KIR2DS2 /// KIR2DS3 /// KIR2DS4 /// KIR3DL3 /// KIR3DL3 /// KIR3DS1 (11738374_at) / RFU C1QL1 (11718748_at) / Fold change /veh C1QL1 (11718748_at) / RFU TMPRSS4 (11747572_a_at) / Fold change /veh TMPRSS4 (11747572_a_at) / RFU HAMP (11756126_x_at) / Fold change /veh HAMP (11756126_x_at) / RFU RNFT2 (11725882_a_at) / Fold change /veh RNFT2 (11725882_a_at) / RFU NR4A2 (11747474_a_at) / Fold change /veh NR4A2 (11747474_a_at) / RFU ABCC12 (11746883_a_at) / Fold change /veh ABCC12 (11746883_a_at) / RFU TMEM136 (11760407_x_at) / Fold change /veh TMEM136 (11760407_x_at) / RFU CLDN22 /// WWC2 (11732394_at) / Fold change /veh CLDN22 /// WWC2 (11732394_at) / RFU HLA-DPB1 (11760878_x_at) / Fold change /veh HLA-DPB1 (11760878_x_at) / RFU SPINT1 (11716480_a_at) / Fold change /veh SPINT1 (11716480_a_at) / RFU GAP43 (11754022_s_at) / Fold change /veh GAP43 (11754022_s_at) / RFU A4GNT (11735810_at) / Fold change /veh A4GNT (11735810_at) / RFU PRB3 (11715151_x_at) / Fold change /veh PRB3 (11715151_x_at) / RFU TUBB4B (11761932_at) / Fold change /veh TUBB4B (11761932_at) / RFU CAPN14 (11732068_a_at) / Fold change /veh CAPN14 (11732068_a_at) / RFU TMCC2 (11721928_a_at) / Fold change /veh TMCC2 (11721928_a_at) / RFU IRGQ (11745062_a_at) / Fold change /veh IRGQ (11745062_a_at) / RFU FAM174B (11720279_a_at) / Fold change /veh FAM174B (11720279_a_at) / RFU TMPRSS4 (11748680_a_at) / Fold change /veh TMPRSS4 (11748680_a_at) / RFU FAM212B (11763350_a_at) / Fold change /veh FAM212B (11763350_a_at) / RFU PLEKHG5 (11743358_a_at) / Fold change /veh PLEKHG5 (11743358_a_at) / RFU ZSCAN30 (11745921_a_at) / Fold change /veh ZSCAN30 (11745921_a_at) / RFU CMKLR1 (11741424_a_at) / Fold change /veh CMKLR1 (11741424_a_at) / RFU LOC101060620 /// MAPK8IP1 (11723275_at) / Fold change /veh LOC101060620 /// MAPK8IP1 (11723275_at) / RFU SPTSSB (11747773_x_at) / Fold change /veh SPTSSB (11747773_x_at) / RFU PRSS12 (11739890_at) / Fold change /veh PRSS12 (11739890_at) / RFU BIN1 (11741810_x_at) / Fold change /veh BIN1 (11741810_x_at) / RFU WNT11 (11732464_a_at) / Fold change /veh WNT11 (11732464_a_at) / RFU C10orf10 (11716521_a_at) / Fold change /veh C10orf10 (11716521_a_at) / RFU C5orf56 (11738089_at) / Fold change /veh C5orf56 (11738089_at) / RFU CYB561 (11721691_x_at) / Fold change /veh CYB561 (11721691_x_at) / RFU ANKRD19P (11752326_a_at) / Fold change /veh ANKRD19P (11752326_a_at) / RFU OR2T12 /// OR2T33 /// OR2T8 (11738714_s_at) / Fold change /veh OR2T12 /// OR2T33 /// OR2T8 (11738714_s_at) / RFU VCAN (11748164_a_at) / Fold change /veh VCAN (11748164_a_at) / RFU JSRP1 (11732532_at) / Fold change /veh JSRP1 (11732532_at) / RFU KRTAP10-11 (11738290_x_at) / Fold change /veh KRTAP10-11 (11738290_x_at) / RFU MYO3A (11730013_a_at) / Fold change /veh MYO3A (11730013_a_at) / RFU EBF3 (11725865_a_at) / Fold change /veh EBF3 (11725865_a_at) / RFU CAMK2N1 (11719241_x_at) / Fold change /veh CAMK2N1 (11719241_x_at) / RFU C5orf56 (11738088_a_at) / Fold change /veh C5orf56 (11738088_a_at) / RFU OLFML3 (11715873_a_at) / Fold change /veh OLFML3 (11715873_a_at) / RFU LOC100653217 /// NTM (11731650_a_at) / Fold change /veh LOC100653217 /// NTM (11731650_a_at) / RFU MAPK11 (11762145_a_at) / Fold change /veh MAPK11 (11762145_a_at) / RFU FIZ1 (11724087_x_at) / Fold change /veh FIZ1 (11724087_x_at) / RFU OASL (11726364_x_at) / Fold change /veh OASL (11726364_x_at) / RFU SOX15 (11748057_x_at) / Fold change /veh SOX15 (11748057_x_at) / RFU CD79A (11719716_a_at) / Fold change /veh CD79A (11719716_a_at) / RFU HIST1H1D (11736915_at) / Fold change /veh HIST1H1D (11736915_at) / RFU CASKIN2 (11723855_a_at) / Fold change /veh CASKIN2 (11723855_a_at) / RFU LOC730098 (11760151_x_at) / Fold change /veh LOC730098 (11760151_x_at) / RFU OR4N2 (11742367_at) / Fold change /veh OR4N2 (11742367_at) / RFU PRRT2 (11749266_a_at) / Fold change /veh PRRT2 (11749266_a_at) / RFU SNX32 (11753110_a_at) / Fold change /veh SNX32 (11753110_a_at) / RFU CDHR5 (11726645_a_at) / Fold change /veh CDHR5 (11726645_a_at) / RFU RCAN1 (11760418_a_at) / Fold change /veh RCAN1 (11760418_a_at) / RFU FAM167A (11723789_a_at) / Fold change /veh FAM167A (11723789_a_at) / RFU FAM26E (11764081_at) / Fold change /veh FAM26E (11764081_at) / RFU ISYNA1 (11749810_s_at) / Fold change /veh ISYNA1 (11749810_s_at) / RFU ACY1 (11761880_at) / Fold change /veh ACY1 (11761880_at) / RFU 11764098_at / Fold change /veh 11764098_at / RFU SAMD14 (11745864_x_at) / Fold change /veh SAMD14 (11745864_x_at) / RFU NPB (11741838_a_at) / Fold change /veh NPB (11741838_a_at) / RFU TMPRSS6 (11731388_a_at) / Fold change /veh TMPRSS6 (11731388_a_at) / RFU KRTAP10-2 (11738614_at) / Fold change /veh KRTAP10-2 (11738614_at) / RFU ARHGAP8 /// PRR5-ARHGAP8 (11727945_x_at) / Fold change /veh ARHGAP8 /// PRR5-ARHGAP8 (11727945_x_at) / RFU KRTAP5-7 /// NADSYN1 (11734609_at) / Fold change /veh KRTAP5-7 /// NADSYN1 (11734609_at) / RFU RASL12 (11751679_a_at) / Fold change /veh RASL12 (11751679_a_at) / RFU CDKN2B (11736163_a_at) / Fold change /veh CDKN2B (11736163_a_at) / RFU PRF1 (11729649_at) / Fold change /veh PRF1 (11729649_at) / RFU, ZNF638 /// ZNF638-IT1 / Fold change vs veh, ZNF638 /// ZNF638-IT1 / RFU, PANK3 / Fold change vs veh, PANK3 / RFU, SH3YL1 / Fold change vs veh, SH3YL1 / RFU, ZEB2 / Fold change vs veh, ZEB2 / RFU, NRIP1 / Fold change vs veh, NRIP1 / RFU, PTTG1IP / Fold change vs veh, PTTG1IP / RFU, CAPN2 / Fold change vs veh, CAPN2 / RFU, MED14 / Fold change vs veh, MED14 / RFU, SNORA58 / Fold change vs veh, SNORA58 / RFU, C1orf63 / Fold change vs veh, C1orf63 / RFU, LRRFIP1 / Fold change vs veh, LRRFIP1 / RFU, NDUFAF7 / Fold change vs veh, NDUFAF7 / RFU, SLC12A2 / Fold change vs veh, SLC12A2 / RFU, IBTK / Fold change vs veh, IBTK / RFU, ESF1 / Fold change vs veh, ESF1 / Fold change vs veh, TMEM50B / RFU, TAOK1 / Fold change vs veh, TAOK1 / RFU, ACBD3 / Fold change vs veh, ACBD3 / RFU, TMA16 / Fold change vs veh, TMA16 / RFU, RWDD3 / Fold change vs veh, RWDD3 / RFU, BCAT1 / Fold change vs veh, BCAT1 / RFU, EDEM3 / Fold change vs veh, EDEM3 / RFU, TMEM33 / Fold change vs veh, TMEM33 / RFU, WDR75 / Fold change vs veh, WDR75 / RFU, AHCTF1 / Fold change vs veh, AHCTF1 / RFU, TFRC / Fold change vs veh, TFRC / RFU, ZDHHC17 / Fold change vs veh, ZDHHC17 / RFU, NOM1 / Fold change vs veh, NOM1 / RFU, ARL8B / Fold change vs veh, ARL8B / RFU, ZBTB11 / Fold change vs veh, ZBTB11 / RFU, TAMM41 / Fold change vs veh, TAMM41 / RFU, KIAA1704 /// LOC100996395 / Fold change vs veh, KIAA1704 /// LOC100996395 / RFU, ING1 / Fold change vs veh, ING1 / RFU, TRMT61B / Fold change vs veh, TRMT61B / RFU, FUBP3 / Fold change vs veh, FUBP3 / RFU, TP53 / Fold change vs veh, TP53 / RFU, TNKS2 / Fold change vs veh, TNKS2 / RFU, ZFP14 / Fold change vs veh, ZFP14 / RFU, ACTR2 / Fold change vs veh, ACTR2 / RFU, PPP3R1 / Fold change vs veh, PPP3R1 / RFU, PIK3R1 / Fold change vs veh, PIK3R1 / RFU, HNRNPA1 / Fold change vs veh, HNRNPA1 / RFU, RNF170 / Fold change vs veh, RNF170 / RFU, ZNF28 / Fold change vs veh, ZNF28 / RFU, RNGTT / Fold change vs veh, RNGTT / RFU, OGT / Fold change vs veh, OGT / RFU, BRD1 / Fold change vs veh, BRD1 / RFU, MARS / Fold change vs veh, MARS / RFU, ZNF655 / Fold change vs veh, ZNF655 / RFU, FAHD1 / Fold change vs veh, FAHD1 / RFU, BDP1 / Fold change vs veh, BDP1 / RFU, LRRCC1 / Fold change vs veh, LRRCC1 / RFU, ARID1A / Fold change vs veh, ARID1A / RFU, ZNF146 / Fold change vs veh, ZNF146 / RFU, ZNF330 / Fold change vs veh, ZNF330 / RFU, GPN3 / Fold change vs veh, GPN3 / RFU, C9orf123 / Fold change vs veh, C9orf123 / RFU, N4BP2L2 / Fold change vs veh, N4BP2L2 / RFU, ARFIP1 / Fold change vs veh, ARFIP1 / RFU, FAM179B / Fold change vs veh, FAM179B / RFU, BCL10 / Fold change vs veh, BCL10 / RFU, UHRF1BP1L / Fold change vs veh, UHRF1BP1L / RFU, BET1 / Fold change vs veh, BET1 / RFU, CNOT2 / Fold change vs veh, CNOT2 / RFU, ZNF268 / Fold change vs veh, ZNF268 / Fold change vs veh, ZNF507 / RFU, DGCR2 / Fold change vs veh, DGCR2 / RFU, WDSUB1 / Fold change vs veh, WDSUB1 / Fold change vs veh, HSP90B1 /// MIR3652 / RFU, ADSS / Fold change vs veh, ADSS / RFU, GK / Fold change vs veh, GK / RFU, ZNF148 / Fold change vs veh, ZNF148 / RFU, TAF9 / Fold change vs veh, TAF9 / RFU, SLC1A5 / Fold change vs veh, SLC1A5 / RFU, SLMO2 / Fold change vs veh, SLMO2 / RFU, ABCC4 / Fold change vs veh, ABCC4 / RFU, LOC101060439 /// RAP1B / Fold change vs veh, LOC101060439 /// RAP1B / RFU, RFX7 / Fold change vs veh, RFX7 / RFU, GTPBP10 / Fold change vs veh, GTPBP10 / RFU, CNEP1R1 / Fold change vs veh, CNEP1R1 / RFU, BIVM-ERCC5 /// ERCC5 / Fold change vs veh, BIVM-ERCC5 /// ERCC5 / RFU, ILF3 / Fold change vs veh, ILF3 / RFU 11762660_at / Fold change /veh 11762660_at / RFU VCAN (11757783_s_at) / Fold change /veh VCAN (11757783_s_at) / RFU DDX43 (11728927_at) / Fold change /veh DDX43 (11728927_at) / RFU KRT8 (11758188_x_at) / Fold change /veh KRT8 (11758188_x_at) / RFU NKD1 (11759106_at) / Fold change /veh NKD1 (11759106_at) / RFU SRD5A1 (11742802_a_at) / Fold change /veh SRD5A1 (11742802_a_at) / RFU TPSAB1 /// TPSB2 (11721975_s_at) / Fold change /veh TPSAB1 /// TPSB2 (11721975_s_at) / RFU GSTM3 (11746129_a_at) / Fold change /veh GSTM3 (11746129_a_at) / RFU IL23R (11737362_x_at) / Fold change /veh IL23R (11737362_x_at) / RFU TMEM51 (11727254_a_at) / Fold change /veh TMEM51 (11727254_a_at) / RFU PIWIL2 (11732686_x_at) / Fold change /veh PIWIL2 (11732686_x_at) / RFU ORM1 (11744905_x_at) / Fold change /veh ORM1 (11744905_x_at) / RFU CCDC152 (11743942_at) / Fold change /veh CCDC152 (11743942_at) / RFU ECM1 (11717891_a_at) / Fold change /veh ECM1 (11717891_a_at) / RFU IL23R (11748794_a_at) / Fold change /veh IL23R (11748794_a_at) / RFU TNFAIP8L3 (11732012_x_at) / Fold change /veh TNFAIP8L3 (11732012_x_at) / RFU MBOAT4 (11741988_at) / Fold change /veh MBOAT4 (11741988_at) / RFU 11764193_at / Fold change /veh 11764193_at / RFU TMEM53 (11763286_at) / Fold change /veh TMEM53 (11763286_at) / RFU MAGEB2 (11727129_at) / Fold change /veh MAGEB2 (11727129_at) / RFU TMEM200A (11744735_a_at) / Fold change /veh TMEM200A (11744735_a_at) / RFU CCDC152 (11751479_a_at) / Fold change /veh CCDC152 (11751479_a_at) / RFU FAM211A (11726209_a_at) / Fold change /veh FAM211A (11726209_a_at) / RFU RGS16 (11746705_a_at) / Fold change /veh RGS16 (11746705_a_at) / RFU VCAN (11755009_s_at) / Fold change /veh VCAN (11755009_s_at) / RFU RHOB (11743442_s_at) / Fold change /veh RHOB (11743442_s_at) / RFU RGS16 (11720943_a_at) / Fold change /veh RGS16 (11720943_a_at) / RFU RGS16 (11720944_at) / Fold change /veh RGS16 (11720944_at) / RFU, VPS4B / Fold change vs veh, VPS4B / RFU, CREB1 / Fold change vs veh, CREB1 / RFU, DNAJC13 / Fold change vs veh, DNAJC13 / RFU, GNAQ / Fold change vs veh, GNAQ / RFU, CDK5R1 / Fold change vs veh, CDK5R1 / RFU, ZRANB3 / Fold change vs veh, ZRANB3 / RFU, CUL4A / Fold change vs veh, CUL4A / RFU, CCNY / Fold change vs veh, CCNY / RFU, UFL1 / Fold change vs veh, UFL1 / RFU, COG3 / Fold change vs veh, COG3 / RFU, DIAPH2 / Fold change vs veh, DIAPH2 / RFU, SKA2 / Fold change vs veh, SKA2 / RFU, AFF3 / Fold change vs veh, AFF3 / RFU, LMF1 / Fold change vs veh, LMF1 / RFU, IPO11 / Fold change vs veh, IPO11 / RFU, DFFB / Fold change vs veh, DFFB / RFU, FOXP1 / Fold change vs veh, FOXP1 / RFU, CARD8 / Fold change vs veh, CARD8 / RFU, STRN3 / Fold change vs veh, STRN3 / RFU, ADK / Fold change vs veh, ADK / RFU, RASSF2 / Fold change vs veh, RASSF2 / RFU, WIPF1 / Fold change vs veh, WIPF1 / RFU, LARP1B / Fold change vs veh, LARP1B / RFU, RASA1 / Fold change vs veh, RASA1 / RFU, RB1 / Fold change vs veh, RB1 / RFU, PPFIA1 / Fold change vs veh, PPFIA1 / RFU, MAT2A / Fold change vs veh, MAT2A / RFU, CCT5 / Fold change vs veh, CCT5 / RFU, WDR92 / Fold change vs veh, WDR92 / RFU, CUX1 / Fold change vs veh, CUX1 / RFU, TTC7A / Fold change vs veh, TTC7A / RFU, TMEM135 / Fold change vs veh, TMEM135 / RFU, DEPTOR / Fold change vs veh, DEPTOR / RFU, CPM / Fold change vs veh, CPM / RFU, DNAJB6 / Fold change vs veh, DNAJB6 / RFU, CACNA2D3 / Fold change vs veh, CACNA2D3 / RFU, DTX4 / Fold change vs veh, DTX4 / RFU, TFCP2 / Fold change vs veh, TFCP2 / RFU, GMCL1 /// GMCL1P1 / Fold change vs veh, GMCL1 /// GMCL1P1 / RFU, AEBP2 / Fold change vs veh, AEBP2 / RFU, SNHG1 /// SNORD22 /// SNORD25 /// SNORD26 /// SNORD27 /// SNORD28 /// SNORD29 /// SNORD31 / Fold change vs veh, SNHG1 /// SNORD22 /// SNORD25 /// SNORD26 /// SNORD27 /// SNORD28 /// SNORD29 /// SNORD31 / Fold change (Aza/veh), C12orf56 (ProbeSet 11735607_a_at) / Fold change (ACY-1035/veh), C12orf56 (ProbeSet 11735607_a_at) / Fold change (Aza/veh), FGFR1OP (ProbeSet 11751329_s_at) / Fold change (ACY-1035/veh), FGFR1OP (ProbeSet 11751329_s_at) / Fold change (Aza/veh), VPS36 (ProbeSet 11739960_a_at) / Fold change (ACY-1035/veh), VPS36 (ProbeSet 11739960_a_at) / RFU SYPL1 (11715823_x_at) / Fold change /veh SYPL1 (11715823_x_at) / RFU IGFBP7 (11715501_s_at) / Fold change /veh IGFBP7 (11715501_s_at) / RFU REEP3 (11722064_at) / Fold change /veh REEP3 (11722064_at) / RFU IGLL1 (11728026_x_at) / Fold change /veh IGLL1 (11728026_x_at): dose or concentration left out as unconfirmed", "conditions": "MV-4-11 cells, 48 hours", "data": [{"compound": "Nc1ccc(-c2cccs2)cc1NC(=O)c1ccc2c(c1)cc(C1CC1)n2CCN1CCOCC1", "note": "[ACY-1035]", "values": [{"measurement": "Fold change /veh ID3 (11757404_x_at)", "result": 1.00}]}]}
